In patent US12521394B2, “Therapeutic compositions and methods for treating cancers” (Pattern Computer, Inc., priority 2019, dated 2026):

System: Non-malignant S1 cells
Assay: 3D LrECM culture translational assay, Live/Dead viability/cytotoxicity (Calcein AM/EthD-1), non-malignant cells
Assay type: cell-based
Settings: 3D culture, FIG. 8B
Procedure: Twenty-one compounds were received and reconstituted to yield 10 mM stock solution. Compounds were independently tested on a 2D culture assay to determine cell survival. Combinations of compounds were then tested on a 6×6 matrix on 2D culture to determine synergistic dosing. Then functional validation of the synergistic combinations was determined in 3D culture. (See FIG. 2).
Non-malignant S1 and Malignant T4-2 cells were evaluated for growth inhibition or cell death with the determined concentrations. The cells were plated at a density of 2×10^4 (S1) or 1×10^4 (T4-2) cells per well on top of Matrigel layer and allowed to form multicellular tumor colonies for 4-5 days. Then the cells were treated with either single-drug or drug combinations as PCI designed to evaluate synergistic interactions. Fresh media containing testing drugs were replenished every other day. At the end of the assay, we analyzed morphology and viability/cytotoxicity using phase imaging and fluorescent detection with Live/Dead using viability/cytotoxicity (Calcein AM/EthD-1) kit (FIG. 8). 3D translational assay in non-malignant S1 and malignant T4-2 cells were repeated 3 times.

## COC[C@H](NC(=O)c1cnc(C)s1)C(=O)N[C@@H](COC)C(=O)N[C@@H](Cc1ccccc1)C(=O)[C@@]1(C)CO1 [Oprozomib, N-[(2S)-3-methoxy-1-[[(2S)-3-methoxy-1-[[(2S)-1-[(2R)-2-methyloxiran-2-yl]-1-oxo-3-phenylpropan-2-yl]amino]-1-oxopropan-2-yl]amino]-1-oxopropan-2-yl]-2-methyl-1,3-thiazole-5-carboxamide]
  cell proliferation in non-malignant S1 cells: promoted cell proliferation
